{"source": "patent US20240226034A1", "about": "“Use of Terpenoids and Salicylates as Anesthetics and Analgesics” (THE REGENTS OF THE UNIVERSITY OF CALIFORNIA, priority 2021, published 2024)", "origin": "cited, not measured here", "key": {"[1]": {"tested_on": "GABAA receptors, rat cerebral cortex cell cultures", "details": "0.75 mM; cited from earlier work"}, "rat sciatic nerves": {"tested_on": "rat sciatic nerves", "details": "read-out: IC50, decrease of compound action potentials; cited from earlier work"}, "[2]": {"target": "T1, human benzodiazepine-sensitive α1β2γ2s GABAA receptors (Homo sapiens, UniProt P14867+P18507+P47870)", "T1 construct": "host or cells: frog oocytes", "T1 sequence (P14867 28-456)": "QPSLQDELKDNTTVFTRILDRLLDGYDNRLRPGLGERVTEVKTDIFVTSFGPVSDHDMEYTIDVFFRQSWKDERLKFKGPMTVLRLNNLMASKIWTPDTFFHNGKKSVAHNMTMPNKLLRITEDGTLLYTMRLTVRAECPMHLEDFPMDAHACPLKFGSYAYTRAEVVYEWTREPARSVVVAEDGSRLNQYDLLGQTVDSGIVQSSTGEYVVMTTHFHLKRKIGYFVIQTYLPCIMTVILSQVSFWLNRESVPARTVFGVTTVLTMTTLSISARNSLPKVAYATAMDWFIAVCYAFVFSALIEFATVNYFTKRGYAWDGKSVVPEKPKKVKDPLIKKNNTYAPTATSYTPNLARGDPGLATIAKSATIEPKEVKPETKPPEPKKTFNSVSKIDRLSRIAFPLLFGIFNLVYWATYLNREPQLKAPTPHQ", "T1 sequence (P47870 26-474 isoform P47870-1 limits assumed)": "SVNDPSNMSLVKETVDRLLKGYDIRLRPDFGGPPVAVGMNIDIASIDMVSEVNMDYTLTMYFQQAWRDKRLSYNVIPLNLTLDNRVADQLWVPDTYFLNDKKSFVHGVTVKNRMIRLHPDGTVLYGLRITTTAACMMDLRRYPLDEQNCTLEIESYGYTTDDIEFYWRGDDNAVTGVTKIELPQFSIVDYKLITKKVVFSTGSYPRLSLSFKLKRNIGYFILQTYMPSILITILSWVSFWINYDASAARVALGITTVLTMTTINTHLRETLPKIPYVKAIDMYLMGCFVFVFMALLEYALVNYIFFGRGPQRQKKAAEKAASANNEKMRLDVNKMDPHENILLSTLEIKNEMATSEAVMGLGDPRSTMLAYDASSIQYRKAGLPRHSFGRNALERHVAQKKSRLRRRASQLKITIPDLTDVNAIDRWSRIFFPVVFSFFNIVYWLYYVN", "T1 sequence (P18507 40-467 isoform P18507-1 limits assumed)": "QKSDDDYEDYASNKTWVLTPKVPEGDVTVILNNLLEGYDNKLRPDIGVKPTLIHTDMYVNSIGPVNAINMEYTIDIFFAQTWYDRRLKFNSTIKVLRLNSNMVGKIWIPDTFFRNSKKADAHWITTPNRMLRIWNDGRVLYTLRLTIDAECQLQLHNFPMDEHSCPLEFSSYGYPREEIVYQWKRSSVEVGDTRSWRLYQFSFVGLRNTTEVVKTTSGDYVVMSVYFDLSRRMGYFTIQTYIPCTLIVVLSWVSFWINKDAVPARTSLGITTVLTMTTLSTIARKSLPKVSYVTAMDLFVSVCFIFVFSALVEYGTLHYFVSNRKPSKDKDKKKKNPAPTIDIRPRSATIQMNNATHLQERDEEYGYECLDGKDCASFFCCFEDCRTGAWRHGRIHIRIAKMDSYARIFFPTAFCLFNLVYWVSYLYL", "details": "concentrations up to 0.12 mM; cited from earlier work"}, "[3]": {"tested_on": "sciatic nerve axon of frogs", "details": "frog sciatic nerve axon; read-out: IC50, decrease of compound action potential amplitude; cited from earlier work"}}}
{"substance": "L-carvone", "values": [{"measurement": "reduction of GABAA-induced benzodiazepine binding", "setting": "[1]", "result": 36, "unit": "%"}, {"measurement": "IC50", "setting": "rat sciatic nerves", "result": 8.7, "unit": "mM"}, {"measurement": "response of α1β2γ2s GABAA receptors", "setting": "[2]", "result": "minimal response"}, {"measurement": "IC50", "setting": "[3]", "result": 1.4, "unit": "mM"}]}
